# Assay results published in ChEMBL document CHEMBL4613209, “Quinolone hybrids and their anti-cancer activities: An overview” (Eur J Med Chem, 2019).
# System: A549
# Assay: Antiproliferative activity against human A549 cells after 48 hrs by MTT assay
# Assay type: functional, cell-based
# Conditions: A549, 48 h
row,SMILES,IC50
1,CCN(CC)Cc1cn(-c2cc3c(cc2F)c(=O)c(C(=O)NO)cn3C2CC2)nn1,> 10 µM
2,CN(C)Cc1cn(-c2cc3c(cc2F)c(=O)c(C(=O)NO)cn3C2CC2)nn1,> 10 µM
3,CCCN(CCC)Cc1cn(-c2cc3c(cc2F)c(=O)c(C(=O)NO)cn3C2CC2)nn1,> 10 µM

# System: A549
# Assay: Cytotoxicity against human A549 cells assessed as reduction in cell viability after 72 hrs by MTT assay
# Assay type: functional, cell-based
# Conditions: A549, 72 h
row,SMILES,IC50
1,O=C(O)c1cn(C2CC2)c2cc(N3CCN(C/C(=N/OCc4ccc(Cl)cc4)c4cccs4)CC3)c(F)cc2c1=O,≤ 10 µM
2,N=c1c(-c2nn3c(-c4cn(C5CC5)c5cc(N6CCNCC6)c(F)cc5c4=O)nnc3s2)cn(C2CC2)c2cc(N3CCNCC3)c(F)cc12,≤ 10 µM

# System: SK-MEL3
# Assay: Cytotoxicity against human SK-MEL-3 cells assessed as reduction in cell viability after 72 hrs by MTT assay
# Assay type: functional, cell-based
# Conditions: SK-MEL3, 72 h
row,SMILES,IC50
1,O=C(O)c1cn(C2CC2)c2cc(N3CCN(C/C(=N/OCc4ccc(Cl)cc4)c4cccs4)CC3)c(F)cc2c1=O,≤ 10 µM
2,N=c1c(-c2nn3c(-c4cn(C5CC5)c5cc(N6CCNCC6)c(F)cc5c4=O)nnc3s2)cn(C2CC2)c2cc(N3CCNCC3)c(F)cc12,≤ 10 µM

# System: MCF7
# Assay: Cytotoxicity against human MCF7 cells assessed as reduction in cell viability after 72 hrs by MTT assay
# Assay type: functional, cell-based
# Conditions: MCF7, 72 h
row,SMILES,IC50
1,O=C(O)c1cn(C2CC2)c2cc(N3CCN(C/C(=N/OCc4ccc(Cl)cc4)c4cccs4)CC3)c(F)cc2c1=O,≤ 10 µM
2,N=c1c(-c2nn3c(-c4cn(C5CC5)c5cc(N6CCNCC6)c(F)cc5c4=O)nnc3s2)cn(C2CC2)c2cc(N3CCNCC3)c(F)cc12,≤ 10 µM

# System: KB
# Assay: Cytotoxicity against human KB cells assessed as reduction in cell viability after 72 hrs by MTT assay
# Assay type: functional, cell-based
# Conditions: not given
row,SMILES,IC50
1,O=C(O)c1cn(C2CC2)c2cc(N3CCN(C/C(=N/OCc4ccc(Cl)cc4)c4cccs4)CC3)c(F)cc2c1=O,≤ 10 µM
2,N=c1c(-c2nn3c(-c4cn(C5CC5)c5cc(N6CCNCC6)c(F)cc5c4=O)nnc3s2)cn(C2CC2)c2cc(N3CCNCC3)c(F)cc12,≤ 10 µM

# System: A 172
# Assay: Cytotoxicity against human A172 cells assessed as reduction in cell viability after 72 hrs by MTT assay
# Assay type: functional, cell-based
# Conditions: A 172, 72 h
row,SMILES,IC50
1,O=C(O)c1cn(C2CC2)c2cc(N3CCN(C/C(=N/OCc4ccc(Cl)cc4)c4cccs4)CC3)c(F)cc2c1=O,≤ 10 µM
2,N=c1c(-c2nn3c(-c4cn(C5CC5)c5cc(N6CCNCC6)c(F)cc5c4=O)nnc3s2)cn(C2CC2)c2cc(N3CCNCC3)c(F)cc12,≤ 10 µM

# System: ACHN
# Assay: Cytotoxicity against human ACHN cells assessed as reduction in cell viability after 72 hrs by MTT assay
# Assay type: functional, cell-based
# Conditions: not given
row,SMILES,IC50
1,O=C(O)c1cn(C2CC2)c2cc(N3CCN(C/C(=N/OCc4ccc(Cl)cc4)c4cccs4)CC3)c(F)cc2c1=O,≤ 10 µM
2,N=c1c(-c2nn3c(-c4cn(C5CC5)c5cc(N6CCNCC6)c(F)cc5c4=O)nnc3s2)cn(C2CC2)c2cc(N3CCNCC3)c(F)cc12,≤ 10 µM

# System: PANC-1
# Assay: Antiproliferative activity against human PANC1 cells after 48 hrs by MTT assay
# Assay type: functional, cell-based
# Conditions: PANC-1, 48 h
row,SMILES,IC50
1,CCN(CC)Cc1cn(-c2cc3c(cc2F)c(=O)c(C(=O)NO)cn3C2CC2)nn1,> 10 µM
2,CN(C)Cc1cn(-c2cc3c(cc2F)c(=O)c(C(=O)NO)cn3C2CC2)nn1,> 10 µM
3,CCCN(CCC)Cc1cn(-c2cc3c(cc2F)c(=O)c(C(=O)NO)cn3C2CC2)nn1,> 10 µM

# System: HCT-116
# Assay: Antiproliferative activity against human HCT116 cells after 48 hrs by MTT assay
# Assay type: functional, cell-based
# Conditions: HCT-116, 48 h
row,SMILES,IC50
1,CCN(CC)Cc1cn(-c2cc3c(cc2F)c(=O)c(C(=O)NO)cn3C2CC2)nn1,> 10 µM
2,CN(C)Cc1cn(-c2cc3c(cc2F)c(=O)c(C(=O)NO)cn3C2CC2)nn1,> 10 µM
3,CCCN(CCC)Cc1cn(-c2cc3c(cc2F)c(=O)c(C(=O)NO)cn3C2CC2)nn1,> 10 µM

# System: A2780
# Assay: Cytotoxicity against human A2780 cells assessed as reduction in cell viability after 72 hrs by MTT assay
# Assay type: functional, cell-based
# Conditions: A2780, 72 h
row,SMILES,IC50
1,O=C(O)c1cn(C2CC2)c2cc(N3CCN(C/C(=N/OCc4ccc(Cl)cc4)c4cccs4)CC3)c(F)cc2c1=O,≤ 10 µM
2,N=c1c(-c2nn3c(-c4cn(C5CC5)c5cc(N6CCNCC6)c(F)cc5c4=O)nnc3s2)cn(C2CC2)c2cc(N3CCNCC3)c(F)cc12,≤ 10 µM

# System: HeLa
# Assay: Antiproliferative activity against human HeLa cells after 48 hrs by MTT assay
# Assay type: functional, cell-based
# Conditions: not given
row,SMILES,IC50
1,CCN(CC)Cc1cn(-c2cc3c(cc2F)c(=O)c(C(=O)NO)cn3C2CC2)nn1,> 10 µM
2,CN(C)Cc1cn(-c2cc3c(cc2F)c(=O)c(C(=O)NO)cn3C2CC2)nn1,> 10 µM
3,CCCN(CCC)Cc1cn(-c2cc3c(cc2F)c(=O)c(C(=O)NO)cn3C2CC2)nn1,> 10 µM
